Reference: patent US20150051232A1, “USE OF (RS)-S-CYCLOPROPYL-S-(4--5-(TRIFLUOROMETHYL)PYRIMIDIN-2-YL]AMINO}PHENYL)SULFOXIMIDE FOR TREATING SPECIFIC TUMOURS” (Bayer Intellectual Property GmbH, priority 2012, published 2015)

Assays:
Assay type in all cases: in vivo, humans
[1] = test system: thyroid cancer; experiment: Clinical trial in patients with thyroid cancer
Protocol: Patient 2006, clinical study 14856, person, papillary thyroid cancer stage IV, progressive disease on study enrollment, systemic pre-therapies with 17-AAG, Sutent, sorafenib, erlotinib and temsirolimus
Patient 1030, clinical study 14484, person, thyroid cancer stage IV, progressive disease on study enrollment, systemic pre-therapies with Adriamycin and cisplatin/carboplatin, carboplatin and Taxol, Nexavar, Sutent
Patient 2006: oral solution, ingredients micronized BAY 1000394 (0.2 mg/ml), levomenthol (synonym: 1-menthol, flavouring) macrogol (400) (synonym: polyethylene glycol (400), solubilizer), polysorbate 20 (surfactant)
Patient 1030: tablet, ingredients BAY 1000394, micronized, 5 mg/tablet, granulated mannitol (filler), microcrystalline cellulose (filler), croscarmellose (disintegrant), magnesium stearate (additive for pressing), red lacquer (coating)
Patient 2006: dosage twice a day 0.3 mg, administration protocol 28 days of treatment and 14 days of non-treatment, long-term treatment until disease progression
Patient 1030: dosage 5 mg in the morning, 10 mg in the evening, administration protocol 3 days of treatment and 4 days of non-treatment, long-term treatment until disease progression

[2] = test system: squamous cell carcinoma of the oesophagus; experiment: Clinical trial in a patient with squamous cell carcinomas of the oesophagus; conditions: 28 days of treatment and 14 days of non-treatment
Protocol: Patient 3002, squamous cell carcinoma of the oesophagus stage IV, progressive disease on study enrollment, systemic pre-therapy with cisplatin and Xeloda
Oral solution, ingredients micronized BAY 1000394 (0.2 mg/ml), levomenthol (synonym: 1-menthol, flavouring) macrogol (400) (synonym: polyethylene glycol (400), solubilizer), polysorbate 20 (surfactant)
Dosage twice a day 0.5 mg, administration protocol 28 days of treatment and 14 days of non-treatment, long-term treatment until disease progression

[3] = test system: cholangiocellular carcinoma; experiment: Clinical trial in a patient with cholangiocellular carcinoma; conditions: 3 days of treatment and 4 days of non-treatment
Protocol: Patient 1026, cholangiocellular carcinoma stage IV, progressive disease on study enrollment, systemic pre-therapies with cisplatin/oxaliplatin and Gemzar, 5-fluorouracil and folinic acid
tablet, ingredients BAY 1000394, micronized, 5 mg/tablet, granulated mannitol (filler), microcrystalline cellulose (filler), croscarmellose (disintegrant), magnesium stearate (additive for pressing), red lacquer (coating)
Dosage twice a day 5 mg, administration protocol 3 days of treatment and 4 days of non-treatment, long-term treatment until disease progression

[4] = test system: mesotheliomas; experiment: Clinical trial in patients with mesotheliomas; conditions: 3 days of treatment and 4 days of non-treatment; for duration of treatment (until disease progression) / tumour response according to RECIST 1.1: oral solution
Text: Patient 1010, epithelioid mesothelioma, progressive disease on study enrollment, systemic pre-therapies with Alimta and cisplatin, gemcitabine, doxorubicin, dekabine
Patient 1016, epithelioid mesothelioma, stage IV, progressive disease on study enrollment, systemic pre-therapies with Alimta and cisplatin, Alimta and carboplatin, Alimta and carboplatin and Avastin, Avastin, Alimta, gemcitabine
Patient 1023, pleuramesothelioma, stage IV, progressive disease on study enrollment, systemic pre-therapies with cisplatin and Alimta
Patient 1024, pleuramesothelioma, stage IV, progressive disease on study enrollment, systemic pre-therapies with cisplatin and Alimta and Avastin, Avastin, carboplatin and Alimta and doxorubicin and dekapine
Oral solution in two dose strengths, ingredients micronized BAY 1000394 (0.2 mg/ml and 4.8 mg/ml), Levomenthol (synonym: 1-menthol, flavouring), macrogol (400) (synonym: polyethylene glycol (400), solubilizer), polysorbate 20 (surfactant)
Dosage twice a day 1.2 mg (patient 1010), 4.8 mg (patient 1016) and 9.6 mg (patients 1023 and 1024), administration protocol 3 days of treatment and 4 days of non-treatment, long-term treatment until disease progression

[5] = patient 1030, thyroid cancer stage IV, tablet, 5 mg in the morning, 10 mg in the evening, 3 days of treatment and 4 days of non-treatment
[6] = patient 2006, papillary thyroid cancer stage IV, oral solution, twice a day 0.3 mg, 28 days of treatment and 14 days of non-treatment
[7] = patient 3002, squamous cell carcinoma of the oesophagus stage IV, oral solution, twice a day 0.5 mg
[8] = patient 1026, cholangiocellular carcinoma stage IV, tablet, twice a day 5 mg
[9] = patient 1010, epithelioid mesothelioma, twice a day 1.2 mg
[10] = patient 1016, epithelioid mesothelioma stage IV, twice a day 4.8 mg
[11] = patient 1023, pleuramesothelioma stage IV, twice a day 9.6 mg
[12] = patient 1024, pleuramesothelioma stage IV, twice a day 9.6 mg

C[C@@H](O)[C@@H](C)Oc1nc(Nc2ccc(S(=N)(=O)C3CC3)cc2)ncc1C(F)(F)F (mixture of isomers) [Compound A, (RS)—S-cyclopropyl-S-(4-{[4-{[(1R,2R)-2-hydroxy-1-methylpropyl]oxy}-5-(trifluoromethyl)pyrimidin-2-yl]amino}phenyl)sulphoximide]
treatment outcome in thyroid cancer patients ([1]; daily dose of 0.6 mg divided into two identical dosage units, 28 days of treatment and 14 days of non-treatment): Disease stabilization
treatment outcome in thyroid cancer patients ([1]; daily dose of 15 mg (5 mg in the morning, 10 mg in the evening), 3 days of treatment and 4 days of non-treatment): Disease stabilization
treatment outcome in a patient suffering from squamous cell carcinoma of the oesophagus ([2]; daily dose of 1 mg divided into two identical dosage units): Disease stabilization
treatment outcome in a patient suffering from cholangiocellular carcinoma ([3]; daily dose of 10 mg divided into two identical dosage units): Disease stabilization
treatment outcome in mesothelioma patients ([4]; daily dose of 2.4 mg, 9.6 mg and 19.2 mg divided into two identical dosage units): Disease stabilization

C[C@@H](O)[C@@H](C)Oc1nc(Nc2ccc([S@](=N)(=O)C3CC3)cc2)ncc1C(F)(F)F [BAY 1000394, (R)—S-cyclopropyl-S-(4-{[4-{[(1R,2R)-2-hydroxy-1-methylpropyl]oxy}-5-(trifluoromethyl)pyrimidin-2-yl]amino}phenyl)sulphoximide]
duration of treatment (until disease progression) [1, 5]: more than 3 months
tumour response according to RECIST 1.1 [1, 5]: disease stabilization
duration of treatment (until disease progression) [1, 6]: about 2 months
tumour response according to RECIST 1.1 [1, 6]: disease stabilization
duration of treatment (until disease progression) [2, 7]: more than 2 months
tumour response according to RECIST 1.1 [2, 7]: disease stabilization
duration of treatment (until disease progression) [3, 8]: more than 4 months
tumour response according to RECIST 1.1 [3, 8]: disease stabilization
duration of treatment (until disease progression) [4, 9]: about 4 months
tumour response according to RECIST 1.1 [4, 9]: disease stabilization
duration of treatment (until disease progression) [4, 10]: more than 3 months
tumour response according to RECIST 1.1 [4, 10]: disease stabilization
duration of treatment (until disease progression) [4, 11]: about 2 months
tumour response according to RECIST 1.1 [4, 11]: disease stabilization
duration of treatment (until disease progression) [4, 12]: about 2 months
tumour response according to RECIST 1.1 [4, 12]: disease stabilization
